Like-named read-outs stand apart in the source and are kept apart here.
Molecular target: T1, SIRT1 (Homo sapiens, UniProt Q96EB6)
T1 sequence (Q96EB6 1-747): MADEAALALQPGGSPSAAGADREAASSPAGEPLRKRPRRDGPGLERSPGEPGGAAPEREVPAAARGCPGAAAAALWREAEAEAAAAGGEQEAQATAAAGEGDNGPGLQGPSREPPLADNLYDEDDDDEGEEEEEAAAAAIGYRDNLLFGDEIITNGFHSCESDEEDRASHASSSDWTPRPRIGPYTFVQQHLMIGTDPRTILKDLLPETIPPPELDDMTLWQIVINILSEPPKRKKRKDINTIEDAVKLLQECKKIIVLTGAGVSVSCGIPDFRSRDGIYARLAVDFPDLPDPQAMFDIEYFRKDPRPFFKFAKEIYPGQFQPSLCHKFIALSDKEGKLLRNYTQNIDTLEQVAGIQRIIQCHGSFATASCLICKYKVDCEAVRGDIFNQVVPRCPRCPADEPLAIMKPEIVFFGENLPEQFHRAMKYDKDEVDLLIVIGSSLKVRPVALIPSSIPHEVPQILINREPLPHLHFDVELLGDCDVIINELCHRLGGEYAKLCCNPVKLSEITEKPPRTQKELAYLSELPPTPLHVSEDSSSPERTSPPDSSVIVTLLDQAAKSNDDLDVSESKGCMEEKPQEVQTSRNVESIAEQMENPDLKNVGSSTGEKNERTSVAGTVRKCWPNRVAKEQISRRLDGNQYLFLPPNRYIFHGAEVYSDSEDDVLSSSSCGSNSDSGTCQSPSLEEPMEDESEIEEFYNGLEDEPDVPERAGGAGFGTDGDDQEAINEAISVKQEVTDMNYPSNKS
Assay: Trp mass spectrometry assay of SIRT1 activation
Assay type: biochemical
Settings: for TRP Activity (EC1.5): EC1.5 = concentration that results in 150% activation of SIRT1
Outline: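 N-terminal His-tagged human SIRT1 (10 nM, E. coli BL21(DE3)) with 0.5 μM Ac-RHKK(Ac)W-NH2 peptide and 120 μM βNAD+, 25 min at 25 °C in HEPES pH 7.5, formic acid stop. OAADPR or deacetylated peptide quantified by mass spectrometry; EC1.5 (50% activity increase over control) and Percent Maximum Activation reported.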

[1] = concentration giving 150% activation of SIRT1, Trp peptide substrate
[2] = Trp peptide assay, maximum activity relative to control (100%), read-out: TRP MAX RESP (percent maximum fold activation)
[3] = Trp mass spectrometry assay, EC1.5 = concentration of test compound that results in 150% activation of SIRT1
[4] = Trp mass spectrometry assay, concentration of test compound giving 150% activation of SIRT1

Structure (SMILES) | Tryp AVG EC1.5 (μM) [1] | Tryp AVG EC1.5 (μM) [3] | also measured
O=C(Nc1cccnn1)N1c2nc(-c3cccc(Cl)c3)ccc2N2C[C@@H](O)[C@H]1C2 [Example 682] | B (B (EC1.5 1-25 μM)) |  | 
CNc1cc(-c2ccc3c(n2)N(C(=O)Nc2cnccn2)[C@H]2CCN3C2)ccn1 [(9S)-5-[2-(methylamino)pyridin-4-yl]-N-(pyrazin-2-yl)-1,6,8-triazatricyclo[7.2.1.0 {2,7}]dodeca-2(7),3,5-triene-8-carboxamide] |  |  | TRP Activity (EC1.5) (Trp peptide assay): B (B (EC1.5 1-25 μM)); Emax [2]: > 150%
NCc1cn(-c2cccc(NC(=O)N3c4nc(-c5cccc(C(F)(F)F)c5)ccc4N4CC[C@H]3C4)c2)nn1 [Example 606] |  | A (A (EC1.5<1 μM)) | 
CN(C)c1cccc(-c2ccc3c(n2)N(C(=O)Nc2ccccn2)[C@H]2CCCN3C2)c1 [Example 386] |  |  | Tryp AVG EC1.5 (μM) [4]: B (B (EC1.5 1-25 μM))
Cc1cc(-c2ccc3c(n2)N(C(=O)Nc2cnccn2)[C@H]2CCN3C2)cc(C)n1 [(9S)-5-(2,6-dimethylpyridin-4-yl)-N-(pyrazin-2-yl)-1,6,8-triazatricyclo[7.2.1.0^{2,7}]dodeca-2,4,6-triene-8-carboxamide] |  |  | TRP Activity (EC1.5) (Trp peptide assay): A (A (EC1.5<1 μM)); Emax [2]: > 150%
O=C(Nc1cnccn1)N1c2cc(N3CCCC(C(F)(F)F)C3)ccc2N2CCC[C@H]1C2 (stereo partly drawn) |  |  | TRP Activity (EC1.5) (Trp peptide assay): A (A (EC1.5<1 μM)); Emax [2]: > 150%
Cn1nc(C(F)(F)F)cc1-c1ccc2c(n1)N(C(=O)Nc1cnccn1)[C@H]1CCN2C1 [(9S)-5-[1-methyl-3-(trifluoromethyl)-1H-pyrazol-5-yl]-N-(pyrazin-2-yl)-1,6,8-triazatricyclo[7.2.1.0 {2,7}]dodeca-2(7),3,5-triene-8-carboxamide] |  |  | TRP Activity (EC1.5) (Trp peptide assay): B (B (EC1.5 1-25 μM)); Emax [2]: > 150%
O=C(Nc1ccncc1)N1c2nc(-c3cccc(C(F)(F)F)c3)ccc2N2CC(O)C1C2 (stereo not drawn) [Compound 114] |  |  | Emax (Trp peptide substrate, percent maximum fold activation of SIRT1, read-out: Tryp % Fold Act): > 150%
Cc1cc(-c2ccc3c(n2)N(C(=O)Nc2cnc4c(c2)OCCO4)[C@H]2CCN3C2)ccn1 [(9S)-N-{2H,3H-[1,4]dioxino[2,3-b]pyridin-7-yl}-5-(2-methylpyridin-4-yl)-1,6,8-triazatricyclo[7.2.1.0 {2,7}]dodeca-2,4,6-triene-8-carboxamide] |  |  | TRP Activity (EC1.5) (Trp peptide assay): B (B (EC1.5 1-25 μM)); Emax [2]: > 150%
O=C(NCCCCc1ccccc1)N1c2nc(-c3cccc(C(F)(F)F)c3)ccc2N2CC[C@H]1C2 [Example 600] |  | B (B (EC1.5 1-25 μM)) | 
O=C(Nc1cccnn1)N1c2nc(-c3cccc(N4CCOCC4)c3)ccc2N2CCC[C@H]1C2 [Example 539] |  | B (B (EC1.5 1-25 μM)) | 
O=C(NCCCc1cccnc1)N1c2nc(-c3cccc(C(F)(F)F)c3)ccc2N2CC[C@H]1C2 [Example 674] | B (B (EC1.5 1-25 μM)) |  | 
Cc1nc(NC(=O)N2c3nc(-c4cccc(N5CCOCC5)c4)ccc3N3CCC[C@H]2C3)sc1C [Example 537] |  | B (B (EC1.5 1-25 μM)) | 
COc1cnc(NC(=O)N2c3nc(-c4ccnc(C)c4)ccc3N3CC[C@H]2C3)cn1 [Example 500] |  | A (A (EC1.5<1 μM)) | 
COc1cc(NC(=O)N2c3nc(-c4ccc(C)nc4)ccc3N3CCC[C@H]2C3)ncn1 [Example 478] |  | B (B (EC1.5 1-25 μM)) | 
Cc1cc(-c2ccc3c(n2)N(C(=O)Nc2cnc(C4CC4)cn2)[C@H]2CCN3C2)ccn1 [(9S)-N-(5-cyclopropylpyrazin-2-yl)-5-(2-methylpyridin-4-yl)-1,6,8-triazatricyclo[7.2.1.0 {2,7}]dodeca-2(7),3,5-triene-8-carboxamide] |  |  | TRP Activity (EC1.5) (Trp peptide assay): A (A (EC1.5<1 μM)); Emax [2]: > 150%
CC(C)(C)OC(=O)NCc1ccc(NC(=O)N2c3nc(-c4cccc(C(F)(F)F)c4)ccc3N3CCC[C@H]2C3)cc1 [Example 445] |  | A (A (EC1.5<1 μM)) | 
O=C(Nc1cc(-c2cnco2)ccn1)N1c2nc(-c3cccc(Cl)c3)ccc2N2C[C@@H](O)[C@H]1C2 [Example 685] | B (B (EC1.5 1-25 μM)) |  | 
NCc1cccc(NC(=O)N2c3nc(-c4cccc(C(F)(F)F)c4)ccc3N3CCC[C@H]2C3)c1 [Example 757] | A (A (EC1.5<1 μM)) |  | 
CN(C)c1cccc(-c2ccc3c(n2)N(C(=O)Nc2cnccn2)[C@H]2CCCN3C2)c1 [Example 403] |  |  | Tryp AVG EC1.5 (μM) [4]: A (A (EC1.5<1 μM))
Cc1ccncc1-c1ccc2c(n1)N(C(=O)Nc1ccccn1)[C@H]1CCCN2C1 [Example 505] |  | C (C (EC1.5>25 μM)) | 

Structure (SMILES) | Tryp AVG EC1.5 (μM) [1] | Tryp AVG EC1.5 (μM) [3] | also measured
O=C(Nc1nnc(-c2cccnc2)s1)N1c2nc(-c3cccc(C(F)(F)F)c3)ccc2N2CC[C@H]1C2 [Example 651] | A (A (EC1.5<1 μM)) |  | 
NC(=O)c1ccc(NC(=O)N2c3nc(-c4cccc(C(F)(F)F)c4)ccc3N3CC[C@H]2C3)cc1 [Example 659] | A (A (EC1.5<1 μM)) |  | 
O=C(Nc1cnccn1)N1c2nc(-c3cccc(Cl)c3)ccc2N2C[C@@H](O)[C@H]1C2 [Example 678] | C (C (EC1.5>25 μM)) |  | 
O=C(Nc1cccc(CN2CCNCC2)c1)N1c2nc(-c3cccc(C(F)(F)F)c3)ccc2N2CC[C@H]1C2 [Example 731] | A (A (EC1.5<1 μM)) |  | 
O=C(Nc1cnccn1)N1c2nc(-c3ccc(CO)nc3)ccc2N2CC[C@H]1C2 [(9S)-5-[6-(hydroxymethyl)pyridin-3-yl]-N-(pyrazin-2-yl)-1,6,8-triazatricyclo[7.2.1.0 {2,7}]dodeca-2(7),3,5-triene-8-carboxamide] |  |  | TRP Activity (EC1.5) (Trp peptide assay): B (B (EC1.5 1-25 μM)); Emax [2]: > 150%
CN(C)c1ccc(-c2ccc3c(n2)N(C(=O)Nc2ccccn2)[C@H]2CCN3C2)cn1 [Example 345] |  |  | Tryp AVG EC1.5 (μM) [4]: B (B (EC1.5 1-25 μM))
O=C(Nc1ccccn1)N1c2nc(-c3cccc(C(F)(F)F)n3)ccc2N2CC[C@H]1C2 [Example 336] |  |  | Tryp AVG EC1.5 (μM) [4]: B (B (EC1.5 1-25 μM))
Cc1cccnc1NC(=O)N1c2nc(-c3cccc(Cl)c3)ccc2N2CC[C@H]1C2 [Example 106] |  |  | Tryp AVG EC1.5 (μM) (Trp peptide substrate, concentration giving 150% activation of SIRT1): C (C (EC1.5>25 μM))
Cc1cc(-c2ccc3c(n2)N(C(=O)Nc2cnccn2)[C@H]2CCN3C2)[nH]n1 [(9S)-5-(3-methyl-1H-pyrazol-5-yl)-N-(pyrazin-2-yl)-1,6,8-triazatricyclo[7.2.1.0^{2,7}]dodeca-2(7),3,5-triene-8-carboxamide] |  |  | TRP Activity (EC1.5) (Trp peptide assay): B (B (EC1.5 1-25 μM)); Emax [2]: > 150%
O=C(Nc1cccc(-c2ccccc2)c1)N1c2nc(-c3cccc(C(F)(F)F)c3)ccc2N2CC[C@H]1C2 [Example 625] | A (A (EC1.5<1 μM)) |  | 
O=C(Nc1cnccn1)N1c2nc(-c3cncc(C(F)(F)F)c3)ccc2N2CCC[C@H]1C2 [Example 452] |  | A (A (EC1.5<1 μM)) | 
N=C(NCCN)c1ccc(NC(=O)N2c3nc(-c4cccc(C(F)(F)F)c4)ccc3N3CCC[C@H]2C3)cc1 [Example 792] | A (A (EC1.5<1 μM)) |  | 
COc1cc(NC(=O)N2c3nc(-c4cnccc4C)ccc3N3CCC[C@H]2C3)ncn1 [Example 511] |  | C (C (EC1.5>25 μM)) | 
O=C(Nc1cccc(-c2cnco2)c1)N1c2nc(-c3cccc(Cl)c3)ccc2N2CCC1CC2 [Example 497] |  | A (A (EC1.5<1 μM)) | 
O=C(Nc1cccc(-n2cncn2)c1)N1c2nc(-c3cccc(C(F)(F)F)c3)ccc2N2CC[C@H]1C2 [Example 581] |  | A (A (EC1.5<1 μM)) | 
Cn1ccc(-c2ccc3c(n2)N(C(=O)Nc2cnccn2)[C@H]2CCN3C2)cc1=O [(9S)-5-(1-methyl-2-oxo-1,2-dihydropyridin-4-yl)-N-(pyrazin-2-yl)-1,6,8-triazatricyclo[7.2.1.0^{2,7}]dodeca-2(7),3,5-triene-8-carboxamide] |  |  | TRP Activity (EC1.5) (Trp peptide assay): B (B (EC1.5 1-25 μM)); Emax [2]: > 150%
O=C(Nc1cccc(CN2CCOCC2)c1)N1c2nc(-c3cccc(C(F)(F)F)c3)ccc2N2CC[C@H]1C2 [Example 629] | A (A (EC1.5<1 μM)) |  | 
CC(C)(C)OC(=O)NCc1ccc(NC(=O)N2c3nc(-c4cccc(C(F)(F)F)c4)ccc3N3CC[C@H]2C3)cc1 [Example 793] | B (B (EC1.5 1-25 μM)) |  | 
O=C(Nc1ccccn1)N1c2nc(-c3cccnc3)ccc2N2CCC[C@H]1C2 [Example 441] |  | B (B (EC1.5 1-25 μM)) | 
O=C(Nc1cncc(F)c1)N1c2nc(-c3cccnc3)ccc2N2CCC[C@H]1C2 [Example 453] |  | B (B (EC1.5 1-25 μM)) | 
CS(=O)(=O)c1cccc(-c2ccc3c(n2)N(C(=O)Nc2cncc(-c4cnco4)c2)[C@H]2CCN3C2)c1 [Example 724] | A (A (EC1.5<1 μM)) |  | 

— patent US9834558B2, “Substituted bridged urea analogs as sirtuin modulators” (GLAXOSMITHKLINE LLC, priority 2013, dated 2017)
